Reference: ChEMBL document CHEMBL3046039, “In vivo antidiabetic activity and in silico studies on adenosine monophosphate-activated protein kinase (AMPK) of (2E,5E)-2,5-bis(4-hydroxy-3-methoxybenzylidene) cyclopentanone” (2013)
Activity calls are given as the source filed them. The calls are words filed in the database; no cut-off is given here.

Tests used:
Rattus norvegicus [1] = test: Increase in sucrose tolerance in fasted normoglycemic Wistar Rattus norvegicus (rat) assessed as reduction in serum glucose level at 7 mg/kg, po measured at 30-120 min post-sucrose challenge by oral sucrose tolerance test; format: functional, organism-based; parameters: dose 7 mg/kg
Rattus norvegicus [2] = test: In vivo antidiabetic activity in streptozotocin-induced diabetic Wistar Rattus norvegicus (rat) assessed as reduction in serum glucose level at 10 mg/kg, po measured after 4 hr by glucose oxidase method; format: functional, organism-based; parameters: dose 10 mg/kg
Rattus norvegicus [3] = test: Increase in glucose tolerance in fasted normoglycemic Wistar Rattus norvegicus (rat) assessed as suppression of blood glucose AUC at 10 mg/kg, po measured at 30-120 min post-glucose challenge by oral glucose tolerance test; format: functional, organism-based; parameters: dose 10 mg/kg
Rattus norvegicus [4] = test: In vivo antidiabetic activity in streptozotocin-induced diabetic Wistar Rattus norvegicus (rat) assessed as reduction in serum glucose level at 0.5 mg/kg, po for 7 days measured at 30 to 120 min post-glucose challenge by oral glucose tolerance test; format: functional, organism-based; parameters: dose 0.5 mg/kg
Rattus norvegicus [5] = test: In vivo antidiabetic activity in streptozotocin-induced diabetic Wistar Rattus norvegicus (rat) assessed as serum total cholesterol level at 0.5 mg/kg, po for 7 days by spectrophotometric analysis (reference value: 126.62 +/-4.7 mg/dl); format: functional
Rattus norvegicus [6] = test: In vivo antidiabetic activity in streptozotocin-induced diabetic Wistar Rattus norvegicus (rat) assessed as serum triglyceride level at 0.5 mg/kg, po for 7 days by spectrophotometric analysis (reference value: 128.77 +/-6.3 mg/dl); format: functional
Rattus norvegicus [7] = test: In vivo antidiabetic activity in streptozotocin-induced diabetic Wistar Rattus norvegicus (rat) assessed as serum LDL-cholesterol level at 0.5 mg/kg, po for 7 days by spectrophotometric analysis (reference value: 80.75 +/-3.4 mg/dl); format: functional
Rattus norvegicus [8] = test: In vivo antidiabetic activity in streptozotocin-induced diabetic Wistar Rattus norvegicus (rat) assessed as serum VLDL-cholesterol level at 0.5 mg/kg, po for 7 days by spectrophotometric analysis (reference value: 28.12 +/-1.5 mg/dl); format: functional
Rattus norvegicus [9] = test: In vivo antidiabetic activity in streptozotocin-induced diabetic Wistar Rattus norvegicus (rat) assessed as serum HDL-cholesterol level at 0.5 mg/kg, po for 7 days by spectrophotometric analysis (reference value: 17.52 +/-2.1 mg/dl); format: functional
Rattus norvegicus [10] = test: In vivo antidiabetic activity in streptozotocin-induced diabetic Wistar Rattus norvegicus (rat) assessed as reduction in serum glucose level at 25 mg/kg, po for 7 days measured at 30 to 120 min post-glucose challenge by oral glucose tolerance test; format: functional, organism-based; parameters: dose 25 mg/kg
Rattus norvegicus [11] = test: In vivo antidiabetic activity in streptozotocin-induced diabetic Wistar Rattus norvegicus (rat) assessed as reduction in serum glucose level at 25 mg/kg, po measured after 2 to 4 hr by glucose oxidase method; format: functional, organism-based; parameters: dose 25 mg/kg
Rattus norvegicus [12] = test: Increase in sucrose tolerance in fasted normoglycemic Wistar Rattus norvegicus (rat) assessed as reduction in serum glucose level at 25 mg/kg, po measured at 30-120 min post-sucrose challenge by oral sucrose tolerance test; format: functional, organism-based; parameters: dose 25 mg/kg
Rattus norvegicus [13] = test: Increase in glucose tolerance in fasted normoglycemic Wistar Rattus norvegicus (rat) assessed as suppression of blood glucose AUC at 25 mg/kg, po measured at 30-120 min post-glucose challenge by oral glucose tolerance test; format: functional, organism-based; parameters: dose 25 mg/kg
Rattus norvegicus [14] = test: In vivo antidiabetic activity in streptozotocin-induced diabetic Wistar Rattus norvegicus (rat) assessed as serum HDL-cholesterol level at 25 mg/kg, po for 7 days by spectrophotometric analysis (reference value: 17.52 +/-2.1 mg/dl); format: functional
Rattus norvegicus [15] = test: In vivo antidiabetic activity in streptozotocin-induced diabetic Wistar Rattus norvegicus (rat) assessed as serum total cholesterol level at 25 mg/kg, po for 7 days by spectrophotometric analysis (reference value: 126.62 +/-4.7 mg/dl); format: functional
Rattus norvegicus [16] = test: In vivo antidiabetic activity in streptozotocin-induced diabetic Wistar Rattus norvegicus (rat) assessed as serum triglyceride level at 25 mg/kg, po for 7 days by spectrophotometric analysis (reference value: 128.77 +/-6.3 mg/dl); format: functional
Rattus norvegicus [17] = test: In vivo antidiabetic activity in streptozotocin-induced diabetic Wistar Rattus norvegicus (rat) assessed as serum LDL-cholesterol level at 25 mg/kg, po for 7 days by spectrophotometric analysis (reference value: 80.75 +/-3.4 mg/dl); format: functional
Rattus norvegicus [18] = test: In vivo antidiabetic activity in streptozotocin-induced diabetic Wistar Rattus norvegicus (rat) assessed as serum VLDL-cholesterol level at 25 mg/kg, po for 7 days by spectrophotometric analysis (reference value: 28.12 +/-1.5 mg/dl); format: functional

## C[C@H]1O[C@H](O[C@H]2[C@H](O)[C@@H](O)[C@@H](O[C@H]3[C@H](O)[C@@H](O)C(O)O[C@@H]3CO)O[C@@H]2CO)[C@H](O)[C@@H](O)[C@@H]1N[C@H]1C=C(CO)[C@@H](O)[C@H](O)[C@H]1O (stereo partly drawn)
Rattus norvegicus [1]
  Activity: Active

## COc1ccc(Cl)cc1C(=O)NCCc1ccc(S(=O)(=O)NC(=O)NC2CCCCC2)cc1 [GLYBURIDE]
Rattus norvegicus [2]
  inhibition: Active
Rattus norvegicus [3]
  Activity: Active
Rattus norvegicus [4]
  inhibition: Active
Rattus norvegicus [5]
  Activity: 81.9 mg/dL
Rattus norvegicus [6]
  Activity: 87.4 mg/dL
Rattus norvegicus [7]
  Activity: 39.5 mg/dL
Rattus norvegicus [8]
  Activity: 19.4 mg/dL
Rattus norvegicus [9]
  Activity: 27.3 mg/dL

## COc1cc(/C=C2\CC/C(=C\c3ccc(O)c(OC)c3)C2=O)ccc1O
Rattus norvegicus [10]
  inhibition: Active
Rattus norvegicus [11]
  inhibition: Active
Rattus norvegicus [12]
  Activity: Active
Rattus norvegicus [13]
  Activity: Active
Rattus norvegicus [14]
  Activity: 26.03 mg/dL
Rattus norvegicus [15]
  Activity: 80.41 mg/dL
Rattus norvegicus [16]
  Activity: 81.9 mg/dL
Rattus norvegicus [17]
  Activity: 25.4 mg/dL
Rattus norvegicus [18]
  Activity: 20.98 mg/dL
